A word on the EC50: it is the concentration giving half of the maximal effect.

The subject of the assay is recombinant NL-Rluc virus. The assay is described as follows: Inhibition of HIV replication (NL-RLuc virus in MT-2 cells, luciferase readout). It is filed as cell-based. The note with it: Human immunodeficiency virus 1, MT2, 120 h, 5 days of incubation, 10% FBS.
Turning to `Cc1nc2cc3nn2c(c1[C@H](OC(C)(C)C)C(=O)O)N1CCC(C)(CC1)OCCC[C@H](C)Oc1ccccc1-c1cccc-3c1` [Example 24, (2S)-2-(tert-Butoxy)-2-[(22S)-4,22,27-trimethyl-21,26-dioxa-1,5,7,8-tetraazahexacyclo[25.2.2.1^6,^9.1^10,^14.0^2,^7.0^15,^20]tritriaconta-2,4,6(33),8,10(32),11,13,15(20),16,18-decaen-3-yl]acetic acid], the EC50 was found to be 8 nM.

As for `Cc1nc2cc3nn2c(c1[C@H](OC(C)(C)C)C(=O)O)N1CCC(C)(CC1)OCCC[C@@H](C)Oc1ccccc1-c1cccc-3c1` [Example 25, (2S)-2-(tert-Butoxy)-2-[(22R)-4,22,27-trimethyl-21,26-dioxa-1,5,7,8-tetraazahexacyclo[25.2.2.1^6,^9.1^10,^14.0^2,^7.0^15,^20]tritriaconta-2,4,6(33),8,10(32),11,13,15(20),16,18-decaen-3-yl]acetic acid], the 50% effective concentration (EC50) amounted to 38 nM.

Consider `Cc1nc2cc3nn2c(c1[C@H](OC(C)(C)C)C(=O)O)N1CCC(C)(CC1)OCC=CCCOc1ccccc1-c1cccc-3c1` [Example 26, (2S)-2-(tert-Butoxy)-2-[4,28-dimethyl-21,27-dioxa-1,5,7,8-tetraazahexacyclo[26.2.2.1^6,^9.1^10,^14.0^2,^7.0^15,^20]tetratriaconta-2,4,6(34),8,10(33),11,13,15(20),16,18,24-undecaen-3-yl]acetic acid], for which the EC50 was 41 nM.

With `Cc1nc2cc3nn2c(c1[C@H](OC(C)(C)C)C(=O)O)N1CCC(C)(CC1)OCCCCCOc1ccccc1-c1cccc-3c1` [Example 27, (2S)-2-(tert-Butoxy)-2-{4,28-dimethyl-21,27-dioxa-1,5,7,8-tetraazahexacyclo[26.2.2.1^6,^9.1^10,^14.0^2,^7.0^15,^20]tetratriaconta-2,4,6(34),8,10(33),11,13,15(20),16,18-decaen-3-yl}acetic acid], the half-maximal effective concentration (EC50) was 10 nM.

For the compound `Cc1nc2cc3nn2c(c1[C@H](OC(C)(C)C)C(=O)O)N1CCC(C)(CC1)OCCCC[C@@H](C)Oc1ccccc1-c1cccc-3c1` [Example 28, (2S)-2-(tert-Butoxy)-2-[(22R)-4,22,28-trimethyl-21,27-dioxa-1,5,7,8-tetraazahexacyclo[26.2.2.1^6,^9.1^10,^14.0^2,^7.0^15,^20]tetratriaconta-2,4,6(34),8,10(33), 11, 13, 15 (20),16,18-decaen-3-yl]acetic acid], the EC50 was 40 nM.

Turning to `Cc1nc2cc3nn2c(c1[C@H](OC(C)(C)C)C(=O)O)N1CCC(C)(CC1)OCCCC[C@H](C)Oc1ccccc1-c1cccc-3c1` [Example 29, (2S)-2-(tert-Butoxy)-2-[(22S)-4,22,28-trimethyl-21,27-dioxa-1,5,7,8-tetraazahexacyclo[26.2.2.1^6,^9.1^10,^14.0^2,^7.0^15,^20]tetratriaconta-2,4,6(34),8,10(33), 11, 13, 15 (20),16,18-decaen-3-yl]acetic acid], the EC50 worked out at 18 nM.

For `Cc1nc2cc3nn2c(c1[C@H](OC(C)(C)C)C(=O)O)N1CCC(C)(CC1)OCCCCCCc1ccccc1-c1cccc-3c1` [Example 30, (2S)-2-(tert-Butoxy)-2-{4,28-dimethyl-27-oxa-1,5,7,8-tetraazahexacyclo[26.2.2.1^6,^9.1^10,^14.0^2,^7.0^15,^20]tetratriaconta-2,4,6(34),8,10(33), 11, 13, 15(20),16,18-decaen-3-yl}acetic acid], the EC50 is 27 nM.

Consider `Cc1nc2cc3nn2c(c1[C@H](OC(C)(C)C)C(=O)O)N1CCC(C)(CC1)OCC=CCOc1ccc(Cl)cc1-c1cccc-3c1` [Example 31, (2S)-2-(tert-Butoxy)-2-[17-chloro-4,2,7-dimethyl-21,26-dioxa-1,5,7,8-tetraazahexacyclo[25.2.2.1^6,^9.1^10,^14.0^2,^7.0^15,^20]tritriaconta-2,4,6(33),8,10(32),11,13,15(20),16,18,23-undecaen-3-yl]acetic acid], for which the concentration for a half-maximal effect (EC50) worked out at 6 nM.

Take `Cc1nc2cc3nn2c(c1[C@H](OC(C)(C)C)C(=O)O)N1CCC(C)(CC1)OCCCCOc1ccc(Cl)cc1-c1cccc-3c1` [Example 32, (2S)-2-(tert-Butoxy)-2-{17-chloro-4,27-dimethyl-21,26-dioxa-1,5,7,8-tetraazahexacyclo[25.2.2.1^6,^9.1^10,^14.0^2,^7.0^15,^20]tritriaconta-2,4,6(33),8,10(32),11,13,15(20),16,18-decaen-3-yl}acetic acid]: the half-maximal effective concentration (EC50) amounted to 9 nM.

As to `Cc1ccc2c(c1)-c1cccc(c1)-c1cc3nc(C)c([C@H](OC(C)(C)C)C(=O)O)c(n3n1)N1CCC(C)(CC1)OCC=CCO2` [Example 33, (2S)-2-(tert-Butoxy)-2-[4,17,27-trimethyl-21,26-dioxa-1,5,7,8-tetraazahexacyclo[25.2.2.1^6,^9.1^10,^14.0^2,^7.0^15,^20]tritriaconta-2,4,6(33),8,10(32),11,13,15(20),16,18,23-undecaen-3-yl]acetic acid], the EC50 is 8 nM.

Regarding `Cc1ccc2c(c1)-c1cccc(c1)-c1cc3nc(C)c([C@H](OC(C)(C)C)C(=O)O)c(n3n1)N1CCC(C)(CC1)OC=CCCO2` [Example 34, (2S)-2-(tert-Butoxy)-2-[4,17,27-trimethyl-21,26-dioxa-1,5,7,8-tetraazahexacyclo[25.2.2.1^6,^9.1^10,^14.0^2,^7.0^15,^20]tritriaconta-2,4,6(33),8,10(32),11,13,15(20),16,18,24-undecaen-3-yl]acetic acid], the EC50 was 14 nM.

As to `Cc1ccc2c(c1)-c1cccc(c1)-c1cc3nc(C)c([C@H](OC(C)(C)C)C(=O)O)c(n3n1)N1CCC(C)(CC1)OCCCCO2` [Example 35, (2S)-2-(tert-Butoxy)-2-{4,17,27-trimethyl-21,26-dioxa-1,5,7,8-tetraazahexacyclo[25.2.2.1^6,^9.1^10,^14.0^2,^7.0^15,^20]tritriaconta-2,4,6(33),8,10(32),11,13,15(20),16,18-decaen-3-yl}acetic acid], the half-maximal effective concentration (EC50) is 10 nM.

As to `Cc1nc2cc3nn2c(c1[C@H](OC(C)(C)C)C(=O)O)N1CCC(C)(CC1)OC/C=C/CCc1ccncc1-c1cccc-3c1` [Example 36, (2S)-2-(tert-Butoxy)-2-[(23E)-4,27-dimethyl-26-oxa-1,5,7,8,17-pentaazahexacyclo[25.2.2.1^6,^9.1^10,^14.0^2,^7.0^15,^20]tritriaconta-2,4,6(33),8,10(32),11,13,15(20),16,18,23-undecaen-3-yl]acetic acid], the EC50 worked out at 34 nM.

For `Cc1nc2cc3nn2c(c1[C@H](OC(C)(C)C)C(=O)O)N1CCC(C)(CC1)OC/C=C\CCc1ccncc1-c1cccc-3c1` [Example 37, (2S)-2-(tert-Butoxy)-2-[(23Z)-4,27-dimethyl-26-oxa-1,5,7,8,17-pentaazahexacyclo[25.2.2.1^6,^9.1^10,^14.0^2,^7.0^15,^20]tritriaconta-2,4,6(33),8,10(32), 11, 13, 15(20),16,18,23-undecaen-3-yl]acetic acid], the EC50 was 2 nM.

On to `Cc1nc2cc3nn2c(c1[C@H](OC(C)(C)C)C(=O)O)N1CCC(C)(CC1)OCCCCCc1ccncc1-c1cccc-3c1` [Example 38, (2S)-2-(tert-Butoxy)-2-{4,27-dimethyl-26-oxa-1,5,7,8,17-pentaazahexacyclo[25.2.2.1^6,^9.1^10,^14.0^2,^7.0^15,^20]tritriaconta-2,4,6(33),8,10(32), 11, 13, 15 (20),16,18-decaen-3-yl}acetic acid], for which the EC50 was 2 nM.

The values are drawn from patent US8906929B2, “Inhibitors of human immunodeficiency virus replication” (priority 2012, dated 2014).
